Source: publication PMC11887385 (Virology Journal, 2025)

Legend:
[1] = tested on: HIV-1 7396 (41L/67N/69N/70R/215F); assay: Antiviral activity on resistant variant, TZM-bl F-Luc; format: cell-based; settings: Human immunodeficiency virus 1, TZM-bl
[2] = tested on: HIV-1 12,243 (100I/179D/230L; 41L/67G/74I); assay: as above; format: cell-based; settings: Human immunodeficiency virus 1, TZM-bl
[3] = tested on: HIV-1 12,231 (103N/179F/181C; 41L/215F); assay: as above; format: cell-based; settings: Human immunodeficiency virus 1, TZM-bl
[4] = tested on: HIV-1NL4-3; assay: Time-of-addition; format: cell-based; settings: TZM-bl, MOI 0.5, read at 48 h
[5] = tested on: HIV-1 K103N; assay: Antiviral activity on single RT mutant, TZM-bl F-Luc; format: cell-based; settings: Human immunodeficiency virus 1, TZM-bl
[6] = tested on: HIV-1NL4-3; assay: Antiviral activity, TZM-bl reporter cells, F-Luc; format: cell-based
[7] = tested on: HIV-1 7407 (103N; 70R/115F); assay: Antiviral activity on resistant variant, TZM-bl F-Luc; format: cell-based; settings: Human immunodeficiency virus 1, TZM-bl
[8] = tested on: HIV-1 L100I; assay: Antiviral activity on single RT mutant, TZM-bl F-Luc; format: cell-based; settings: Human immunodeficiency virus 1, TZM-bl
[9] = tested on: HIV-1 G190C; assay: as above; format: cell-based; settings: Human immunodeficiency virus 1, TZM-bl
[10] = tested on: HIV-1 K101P; assay: as above; format: cell-based; settings: Human immunodeficiency virus 1, TZM-bl
[11] = tested on: HIV-1 12,241 (101E/138G/190S); assay: Antiviral activity on resistant variant, TZM-bl F-Luc; format: cell-based; settings: Human immunodeficiency virus 1, TZM-bl
[12] = tested on: HIV-1 G190S; assay: Antiviral activity on single RT mutant, TZM-bl F-Luc; format: cell-based; settings: Human immunodeficiency virus 1, TZM-bl
[13] = tested on: HIV-1 G190A; assay: as above; format: cell-based; settings: Human immunodeficiency virus 1, TZM-bl
[14] = tested on: HIV-1 12,227 (101P/103N; 41L/215Y); assay: Antiviral activity on resistant variant, TZM-bl F-Luc; format: cell-based; settings: Human immunodeficiency virus 1, TZM-bl
[15] = tested on: HIV-1 7406 (190C; 41L/69S*/74 V/184 V/210W/215Y); assay: as above; format: cell-based; settings: Human immunodeficiency virus 1, TZM-bl
[16] = Cell viability test; format: cell-based, human; settings: human, A3.01 cells
[17] = tested on: A3.01 cells; assay: Cell viability test; format: cell-based, human; settings: A3.01
[18] = tested on: HIV-1JRCSF; assay: Antiviral activity, TZM-bl reporter cells, F-Luc; format: cell-based; settings: Human immunodeficiency virus 1, TZM-bl, read-out: EC50 (1:5 dilution)
[19] = tested on: HIV-1NL4-3 early and late RT products; assay: HIV-1 reverse transcripts in infected A3.01 cells, RT-qPCR; format: cell-based; settings: A3.01, 1 μM, 6 h
[20] = tested on: HIV-1NL4-3 integrated proviral DNA; assay: Integrated proviral DNA in infected A3.01 cells, Alu-PCR; format: cell-based; settings: A3.01, 1 μM
[21] = tested on: TZM-bl cells; assay: Cell viability test; format: cell-based; settings: 48 h
[22] = Cell viability test; format: cell-based; settings: human, TZM-bl cells, CC50 (1:5 dilution)
[23] = tested on: HIV-1NL4-3-IRES-GFP proviral DNA; format: cell-based; settings: HEK293T, 48 h
[24] = tested on: Tat-mediated viral transcription of LTR; assay: Tat-mediated LTR transcription in bl-DTR cells; format: cell-based, HIV-1; settings: doxycycline, 24 h
[25] = tested on: HIV-1NL4-3; assay: Viral replication in A3.01 T cells, p24 […]; format: cell-based; settings: Human immunodeficiency virus 1, NL43, T-cell, read-out: EC50 (1:5 dilution)
[26] = Cell viability test; format: cell-based; settings: human, PBMCs
[27] = tested on: PBMCs; assay: Cell viability test; format: cell-based
[28] = tested on: HIV-1 89.6; assay: Antiviral activity, TZM-bl reporter cells, F-Luc; format: cell-based; settings: Human immunodeficiency virus 1, TZM-bl, read-out: EC50 (1:5 dilution)
[29] = molecular target: HIV-1 integrase (Human immunodeficiency virus type 1 group M subtype B, UniProt P04585); assay: HIV-1 integrase assay kit; format: biochemical; settings: 10 µM
[30] = molecular target: recombinant HIV-1 RTase (Human immunodeficiency virus type 1 group M subtype B, UniProt P04585); assay: In vitro RTase assay; format: biochemical; settings: IC50 against RTase, 0.5 unit RTase, 1 h, 24 °C
[31] = tested on: HIV-1JRCSF; assay: Viral replication in PBMCs, p24 […]; format: cell-based; settings: Human immunodeficiency virus 1, PBMC, read-out: EC50 (1:5 dilution)
[32] = tested on: HIV-1NL4-3; assay: Viral replication in PBMCs, p24 […]; format: cell-based; settings: Human immunodeficiency virus 1, NL43, PBMC, read-out: EC50 (1:5 dilution)
[33] = Human immunodeficiency virus 1, TZM-bl, 48 h
[34] = Human immunodeficiency virus 1, TZM-bl
[35] = Human immunodeficiency virus 1, NL43, TZM-bl, read-out: EC50 (1:5 dilution)

Cc1cn([C@H]2C[C@H](N=[N+]=[N-])[C@@H](CO)O2)c(=O)[nH]c1=O [AZT, zidovudine]
EC50 [1]: 3830 ± 1210 nM | EC50 [2]: 290 ± 10 nM | EC50 [3]: 630 ± 190 nM | time postinfection of addition at which the inhibitory effect disappeared [4]: 2 h | EC50 [5]: 110 ± 10 nM | EC50 [6, 33]: 290 ± 60 nM | EC50 [7]: > 50000 nM | EC50 [8]: 70 ± 10 nM | EC50 [9]: 50 ± 10 nM | EC50 [10]: 40 nM | EC50 [11]: 80 ± 30 nM | EC50 [12]: 80 ± 10 nM | EC50 [13]: 110 ± 10 nM | EC50 [14]: 1000 ± 130 nM | EC50 [15]: 15100 ± 2160 nM

Cc1nn(C(C)c2nnc(Nc3ccn(Cc4ccccc4)n3)s2)c(C)c1Br (centres unmarked) [BPPT, N-(1-benzyl-1H-pyrazol-3-yl)-5-[1-(4-bromo-3,5-dimethyl-1H-pyrazol-1-yl)ethyl]-1,3,4-thiadiazol-2-amine]
CC50 [16]: > 50000 nM | no cytotoxicity up to [17]: > 50 µM | EC50 [18]: 160 ± 10 nM | synthesis of viral cDNA, early and late stages of RT [19]: greatly inhibited | EC50 [2]: > 50000 nM | EC50 [3]: > 50000 nM | integrated proviral DNA [20]: low level of integrated proviral DNA | time postinfection of addition at which the inhibitory effect disappeared [4]: 6 h | EC50 [5]: 880 ± 120 nM | no (severe) cytotoxicity up to [21]: > 250 µM | CC50 [22]: > 50000 nM | GFP signal and level of p24 in the supernatant from transfected cells [23]: not inhibited | EC50 [6, 34]: 60 nM | Tat-mediated viral transcription of LTR [24]: did not inhibit | EC50 [25]: 160 ± 20 nM | EC50 [7]: 19700 ± 1600 nM | EC50 [8]: 3500 ± 650 nM | CC50 [26]: > 50000 nM | no cytotoxicity up to [27]: > 50 µM | EC50 [9]: 290 ± 30 nM | EC50 [28]: 90 nM | integrase activity [29]: did not affect | EC50 [10]: 1710 ± 30 nM | IC50 [30]: 140 nM | EC50 [11]: 4570 ± 2300 nM | EC50 [31]: 40 ± 30 nM | EC50 [12]: 280 ± 50 nM | EC50 [32]: 80 ± 10 nM | EC50 [13]: 70 nM | EC50 [14]: > 50000 nM | EC50 [15]: 350 ± 40 nM

C[C@@H]1CCO[C@H]2Cn3cc(C(=O)NCc4ccc(F)cc4F)c(=O)c(O)c3C(=O)N12 [DTG, Dolutegravir]
time postinfection of addition at which the inhibitory effect disappeared [4]: 8 h

O=C1Nc2ccc(Cl)cc2[C@@](C#CC2CC2)(C(F)(F)F)O1 [EFV, efavirenz]
EC50 [1]: 1 nM | EC50 [3]: 180 ± 220 nM | EC50 [5]: 40 ± 10 nM | CC50 [22]: 25900 nM | EC50 [6, 35]: 1 nM | EC50 [6, 33]: 1 nM | EC50 [7]: 350 ± 30 nM | EC50 [8]: 20 nM | EC50 [9]: 390 ± 90 nM | EC50 [10]: 20 nM | EC50 [12]: 120 ± 10 nM | EC50 [13]: 10 nM

Cc1ccnc2c1NC(=O)c1cccnc1N2C1CC1 [NVP, nevirapine]
EC50 [1]: 350 ± 70 nM | EC50 [2]: 21400 ± 2210 nM | EC50 [3]: > 50000 nM | EC50 [5]: 4550 ± 270 nM | CC50 [22]: > 50000 nM | EC50 [6, 35]: 80 ± 180 nM | EC50 [6, 33]: 80 ± 20 nM | EC50 [7]: > 50000 nM | EC50 [8]: 180 ± 40 nM | EC50 [9]: 23800 ± 3310 nM | EC50 [10]: 8310 ± 600 nM | EC50 [11]: > 50000 nM | EC50 [12]: 32700 ± 4490 nM | EC50 [13]: 15700 ± 2730 nM | EC50 [14]: > 50000 nM | EC50 [15]: > 50000 nM

Cc1nnc(C(=O)NC(C)(C)c2nc(C(=O)NCc3ccc(F)cc3)c(O)c(=O)n2C)o1 [RAL, raltegravir]
time postinfection of addition at which the inhibitory effect disappeared [4]: 8 h

Cc1cc(/C=C/C#N)cc(C)c1Nc1ccnc(Nc2ccc(C#N)cc2)n1 [RPV, rilpivirine]
EC50 [6, 34]: 0.7 nM

CC(C)[C@]12O[C@H]1[C@@H]1O[C@]13[C@]1(O[C@H]1C[C@H]1C4=C(CC[C@@]13C)C(=O)OC4)[C@@H]2O [TPL, triptolide]
time postinfection of addition at which the inhibitory effect disappeared [4]: 24 h

O=C(Nc1ccc(S(=O)(=O)O)c2ccccc12)c1ccc(=O)oc1 [compound 1, 4-(2-oxo-2H-pyran-5-carboxamido)naphthalene-1-sulfonic acid]
EC50 [6, 33]: 8480 nM

CCc1cc(=O)oc2cc(OC(CC)C(=O)c3ccccc3)ccc12 (centres unmarked) [compound 2, 4-ethyl-7-((1-oxo-1-phenylbutan-2-yl)oxy)-2H-chromen-2-one]
EC50 [6, 33]: 4890 nM

CC(C)(C)c1cc([N+](=O)[O-])cc(C=O)c1O [compound 3, 3-tert-butyl-2-hydroxy-5-nitrobenzaldehyde]
EC50 [6, 33]: 1470 nM

COc1cccc(C=NNC(=S)NN)c1OC [compound 4, 1-amino-3-[(2,3-dimethoxyphenyl)methylideneamino]thiourea]
EC50 [6, 33]: 6390 nM

Enfuvirtide [T20]
time postinfection of addition at which the inhibitory effect disappeared [4]: 1 h
